Laboratory results as given in patent US20130123271A1, “HETEROCYCLIC COMPOUNDS, THEIR PREPARATION AND THERAPEUTIC APPLICATION” (FOVEA PHARMACEUTICALS, priority 2010, published 2013).

Each molecule was assayed against h Src (Homo sapiens, UniProt P12931) (assay: LC3000 Src assay (off-chip incubation mobility-shift kinase assay, Caliper LabChip)). Settings: ATP at KM apparent.
Assay type: biochemical
Method: The screening and profiling experiments described here were performed using Caliper Life Sciences' proprietary LabChip™ technology. Caliper LC3000 and EZ Reader II instruments are widely used throughout the drug discovery process for assay development, primary screening, selectivity screening, generation of Structure-Activity Relationships (SARs) and Mechanism of Action (MOA) studies. The LabChip™ technology is particularly well suited for enzymatic ‘targets’ such as kinases, proteases, phosphatases, histone deacetylases (HDAC), phosphodiesterases (PDE), and acyl-transferases. The key benefit of the technology is the separation and direct measurement of substrates and products, which allows for higher signal-to-noise ratios and fewer false positive/negative results. This direct measurement also allows for the identification and elimination of enzymatic activities that are not associated with the kinase reaction of interest.
The off-chip incubation mobility-shift kinase assay uses a microfluidic chip to measure the conversion of a fluorescent peptide substrate to a phosphorylated product. The reaction mixture, from a microtiter plate well, is introduced through a capillary sipper onto the chip, where the nonphosphorylated substrate and phosphorylated product are separated by electrophoresis and detected via laser-induced fluorescence. […] The phosphorylated product migrates through the chip faster than the non-phosphorylated substrate, and signals from the two forms of the peptide appear as distinct peaks. Caliper's data analysis software (HTSWA) determines peak heights, from which the ratio of product to the peak sum P/(P+S) and percent (%) conversion is calculated. This value is used to compare compound wells to control wells present on the plate, and thereby determine the % inhibition values for the compound. The formula used to calculate % inhibition is as follows, where C100% is the average % conversion of the 100% activity wells and C0% is the average % conversion of the 0% activity wells:
(1-(%conversionofsample—C0%)/(C100%−C0%))*100
Compounds were dissolved in 100% DMSO and diluted to 25× the final desired screening concentration. Serial dilutions were performed to obtain the concentrations specified for particular studies. One μl of each concentration was transferred, in duplicate, to a 384-well Greiner microtiter plate. Generally, 12 μL of enzyme buffer containing purified kinase (various suppliers), 100 mM HEPES, pH 7.5, 1 mM DTT (Calbiochem, 2333153), 10 mM MgCl2 (Sigma, M-1028) or 10 mM MnCl2 (Sigma, M-1787) (assay specific), and 0.002% Brij-35 (Sigma, B4184) was added to each well. Compound and enzyme were allowed to pre-incubate for 15 minutes. 12 μL of peptide/ATP buffer containing 100 mM HEPES, pH 7.5, 1.5 μM fluorescein-labeled peptide (specific to kinase of interest), ATP (at KM apparent, Sigma, A9187), and 0.002% Brij-35 was then added to each well to initiate the reaction. Generally, reactions were incubated for 1-1.5 hours at room temperature to obtain adequate (15-40%) conversion of peptide to phosphorylated product in the linear range of the reaction. Reactions were terminated with the addition of 45 μL of Stop Buffer (containing 20 mM EDTA). Plates were then read on the LabChip 3000 using a 12-sipper LabChip. % conversion values and % inhibition values were obtained as described and IC50 curves of compounds were generated using Graphpad Prism Version 4 or 5.01. A nonlinear curve fit using the sigmoidal dose response—variable slope fit was used to graph IC50 curves and determine IC50 values and hillslopes.

Chain of h Src (P12931 whole entry): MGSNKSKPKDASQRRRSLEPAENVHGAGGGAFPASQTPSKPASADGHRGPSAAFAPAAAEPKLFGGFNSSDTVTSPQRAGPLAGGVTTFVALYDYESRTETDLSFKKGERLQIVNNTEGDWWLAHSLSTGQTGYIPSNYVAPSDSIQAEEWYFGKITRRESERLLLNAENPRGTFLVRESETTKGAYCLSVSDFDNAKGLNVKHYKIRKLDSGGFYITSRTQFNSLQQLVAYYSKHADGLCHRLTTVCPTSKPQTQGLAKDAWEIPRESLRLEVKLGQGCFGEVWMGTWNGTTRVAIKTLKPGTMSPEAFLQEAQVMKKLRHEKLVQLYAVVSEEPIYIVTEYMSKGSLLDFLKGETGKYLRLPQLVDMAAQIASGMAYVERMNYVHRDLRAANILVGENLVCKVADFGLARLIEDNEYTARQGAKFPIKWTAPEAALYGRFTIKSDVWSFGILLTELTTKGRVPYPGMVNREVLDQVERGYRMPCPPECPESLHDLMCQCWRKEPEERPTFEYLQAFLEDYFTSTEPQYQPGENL

Row | Compound | IC50
1 | COc1cc(Nc2nc3ccc(-c4cc(O)ccc4Cl)cn3n2)ccn1 [Compound 20, 4-Chloro-3-[2-(2-methoxy-pyridin-4-ylamino)-[1,2,4]triazolo[1,5-a]pyridin-6-yl]-phenol] | 6 nM
2 | Oc1ccc(Cl)c(-c2ccc3nc(Nc4ccc(OCCN5CCCC5)cn4)nn3c2)c1 [compound 8, 4-Chloro-3-{2-[5-(2-pyrrolidin-1-yl-ethoxy)-pyridin-2-ylamino]-[1,2,4]triazolo[1,5-a]pyridin-6-yl}-phenol] | 100 nM
3 | OCc1cc(CO)cc(Nc2nc3cc(-c4cc(O)ccc4Cl)ccn3n2)c1 [Compound 34, 3-[2-(3,5-Bis-hydroxymethyl-phenylamino)-[1,2,4]triazolo[1,5-a]pyridin-7-yl]-4-chloro-phenol] | 9 nM
4 | Cc1cc(Nc2ncc3cc(-c4cc(OC(=O)c5ccccc5)ccc4Cl)ccc3n2)cc(N2CCN(CCO)CC2)c1 [Compound 49, Benzoic acid 4-chloro-3-(2-{3-[4-(2-hydroxy-ethyl)-piperazin-1-yl]-5-methyl-phenylamino}-quinazolin-6-yl)-phenyl ester] | 11 nM
5 | Oc1ccc(Cl)c(-c2ccc3nc(Nc4cncnc4)nn3c2)c1 [compound 3, 4-Chloro-3-[2-(pyrimidin-5-ylamino)-[1,2,4]triazolo[1,5-a]pyridin-6-yl]-phenol] | 150 nM
6 | OCc1ccc(Nc2nc3ccc(-c4cc(O)ccc4Cl)cn3n2)cc1CO [Compound 35, 3-[2-(3,4-Bis-hydroxymethyl-phenylamino)-[1,2,4]triazolo[1,5-a]pyridin-6-yI]-4-chloro-phenol] | 34 nM
7 | Oc1ccc(Cl)c(-c2ccc3nc(Nc4ccc5cc[nH]c5c4)nn3c2)c1 [Compound 18, 4-Chloro-3-[2-(1H-indol-6-ylamino)-[1,2,4]triazolo[1,5-a]pyridin-6-yl]-phenol] | 39 nM
8 | [O-][N+]1(CCOc2ccc(Nc3nc4ccc(-c5cc(O)ccc5Cl)cn4n3)cc2)CCCC1 [Compound 41, 4-Chloro-3-(2-{4-[2-(1-oxy-pyrrolidin-1-yl)-ethoxy]-phenylamino}-[1,2,4]triazolo[1,5-a]pyridin-6-yl)-phenol] | 55 nM
9 | OCc1cncc(Nc2nc3ccc(-c4cc(O)ccc4Cl)cn3n2)c1 [compound 4, 4-Chloro-3-[2-(5-hydroxymethyl-pyridin-3-ylamino)-[1,2,4]triazolo[1,5-a]pyridin-6-yl]-phenol] | 39 nM
10 | Oc1ccc(Cl)c(-c2ccc3nc(Nc4cncc(OCCN5CCCC5)c4)nn3c2)c1 [Compound 26, 4-Chloro-3-{2-[5-(2-pyrrolidin-1-yl-ethoxy)-pyridin-3-ylamino]-[1,2,4]triazolo[1,5-a]pyridin-6-yl}-phenol] | 14 nM
11 | OCc1cncc(Nc2ncc3cc(-c4cc(O)ccc4Cl)ccc3n2)c1 [Compound 21, 4-Chloro-3-[2-(5-hydroxymethyl-pyridin-3-ylamino)-quinazolin-6-yl]-phenol] | 0.4 nM
12 | O=C1CCCN1CCOc1ccc(Nc2nc3ccc(-c4cc(O)ccc4Cl)cn3n2)cn1 [Compound 44, 1-(2-{5-[6-(2-Chloro-5-hydroxy-phenyl)-[1,2,4]triazolo[1,5-a]pyridin-2-ylamino]-pyridin-2-yloxy}-ethyl)-pyrrolidin-2-one] | 57 nM
13 | Oc1ccc(Cl)c(-c2ccc3nc(Nc4ccncc4)nn3c2)c1 [compound 1, 4-Chloro-3-[2-(pyridin-4-ylamino)-[1,2,4]triazolo[1,5-a]pyridin-6-yl]-phenol] | 73 nM
14 | COc1cc(Nc2nc3ccc(-c4cc(O)ccc4Cl)cn3n2)cc(OC)c1OC [Compound 29, 4-Chloro-3-[2-(3,4,5-trimethoxy-phenylamino)-[1,2,4]triazolo[1,5-a]pyridin-6-yl]-phenol] | 2 nM
15 | Oc1ccc(Cl)c(-c2ccn3nc(Nc4cccnc4)nc3c2)c1 [Compound 31, 4-Chloro-3-[2-(pyridin-3-ylamino)-[1,2,4]triazolo[1,5-a]pyridin-7-yl]-phenol] | 69 nM
16 | COc1cc(Nc2ncc3cc(-c4cc(O)ccc4Cl)ccc3n2)cc(OC)c1OC [Compound 36, 4-Chloro-3-[2-(3,4,5-trimethoxy-phenylamino)-quinazolin-6-y]-phenol] | 0.5 nM
17 | OCCn1cnc2ccc(Nc3nc4ccc(-c5cc(O)ccc5Cl)cn4n3)cc21 [Compound 30, 4-Chloro-3-{2-[3-(2-hydroxy-ethyl)-3H-benzoimidazol-5-ylamino]-[1,2,4]triazolo[1,5-a]pyridin-6-yl}-phenol] | 7 nM
18 | OCCN1CCN(c2cc(Nc3nc4ccc(-c5cc(O)ccc5Cl)cn4n3)ccn2)CC1 [Compound 38, 4-Chloro-3-(2-{2-[4-(2-hydroxy-ethyl)-piperazin-1-yl]-pyridin-4-ylamino}-[1,2,4]triazolo[1,5-a]pyridin-6-yl)-phenol] | 13 nM
19 | Oc1ccc(Cl)c(-c2ccc3nc(Nc4cccnc4)nn3c2)c1 [compound 2, 4-Chloro-3-[2-(pyridin-3-ylamino)-[1,2,4]triazolo[1,5-a]pyridin-6-yl]-phenol] | 120 nM
20 | Oc1ccc(Cl)c(-c2ccc3nc(Nc4ccnc(OCCN5CCCC5)c4)nn3c2)c1 [Compound 33, 4-Chloro-3-{2-[2-(2-pyrrolidin-1-yl-ethoxy)-pyridin-4-ylamino]-[1,2,4]triazolo[1,5-a]pyridin-6-yl}-phenol] | 29 nM
21 | Oc1ccc(Cl)c(-c2ccc3nc(Nc4ccccn4)nn3c2)c1 [compound 12, 4-Chloro-3-[2-(pyridin-2-ylamino)-[1,2,4]triazolo[1,5-a]pyridin-6-yl]-phenol] | 170 nM
22 | COc1ccc(Nc2ncc3cc(-c4cc(O)ccc4Cl)ccc3n2)cn1 [Compound 40, 4-Chloro-3-[2-(6-methoxy-pyridin-3-ylamino)-quinazolin-6-yl]-phenol] | 10 nM
23 | Oc1ccc(Cl)c(-c2ccc3nc(Nc4ccc5cc[nH]c5c4)ncc3c2)c1 [Compound 42, 4-Chloro-3-[2-(1 H-indol-6-ylamino)-quinazolin-6-yl]-phenol] | 100 nM
24 | COc1ccc(Nc2nc3ccc(-c4cc(O)ccc4Cl)cn3n2)cn1 [compound 7, 4-Chloro-3-[2-(6-methoxy-pyridin-3-ylamino)-[1,2,4]triazolo[1,5-a]pyridin-6-yl]-phenol] | 80 nM
25 | OCCN1CCN(c2cc(CO)cc(Nc3nc4ccc(-c5cc(O)ccc5Cl)cn4n3)c2)CC1 [Compound 47, 4-Chloro-3-(2-{3-[4-(2-hydroxy-ethyl)-piperazin-1-yl]-5-hydroxymethyl-phenylamino}-[1,2,4]triazolo[1,5-a]pyridin-6-yl)-phenol] | 1 nM
26 | Oc1ccc(Cl)c(-c2ccc3nc(Nc4cccnc4)ncc3c2)c1 [Compound 17, 4-Chloro-3-[2-(pyridin-3-ylamino)-quinazolin-6-yl]-phenol] | 2 nM
27 | Oc1ccc(Cl)c(-c2ccc3nc(Nc4ccnc(O)c4)nn3c2)c1 [Compound 19, 4-[6-(2-Chloro-5-hydroxy-phenyl)-[1,2,4]triazolo[1,5-a]pyridin-2-ylamino]-pyridin-2-ol] | 28 nM
28 | COc1cc2nc(Nc3ccc(OCCN4CCCC4)cc3)nn2cc1-c1cc(O)ccc1Cl [Compound 39, 4-Chloro-3-{7-methoxy-2-[4-(2-pyrrolidin-1-yl-ethoxy)-phenylamino]-[1,2,4]triazolo[1,5-a]pyridin-6-yl}-phenol] | 69 nM
29 | OCc1ccc(Nc2nc3ccc(-c4cc(O)ccc4Cl)cn3n2)cn1 [compound 14, 4-Chloro-3-[2-(6-hydroxymethyl-pyridin-3-ylamino)-[1,2,4]triazolo[1,5-a]pyridin-6-yl]-phenol] | 47 nM
30 | OCCN1CCN(c2cc(CO)cc(Nc3ncc4cc(-c5cc(O)ccc5Cl)ccc4n3)c2)CC1 [Compound 50, 4-Chloro-3-(2-{3-[4-(2-hydroxy-ethyl)-piperazin-1-yl]-5-hydroxymethyl-phenylamino}-quinazolin-6-yl)-phenol] | 0.2 nM
